Test results reported in the NIST ThermoML archive (doi:10.1016/j.jct.2019.05.002).

Assay: xn = mol fraction of the nth substance listed
Conditions: 100 kPa, Liquid; for speed of sound: Frequency=3 MHz, Single path-length method; for mass density: Vibrating tube method

OCCCCO [1,4-butanediol] + CCCC(=O)OCC
Conditions | mass density [kg/m3] | speed of sound [m/s]
298.15 K, x2 = 0 | 1012.8 | 1601.9
298.15 K, x2 = 0.1009 | 998.83 | 1558.5
298.15 K, x2 = 0.1986 | 985.3 | 1516.5
298.15 K, x2 = 0.3254 | 967.74 | 1461.9
298.15 K, x2 = 0.4231 | 954.2 | 1419.9
298.15 K, x2 = 0.5008 | 943.44 | 1386.5
298.15 K, x2 = 0.5895 | 931.16 | 1348.4
298.15 K, x2 = 0.7128 | 914.08 | 1295.3
298.15 K, x2 = 0.8015 | 901.8 | 1257.2
298.15 K, x2 = 0.9105 | 886.7 | 1210.3
303.15 K, x2 = 0 | 1009.77 | 1590.3
303.15 K, x2 = 0.1009 | 995.55 | 1545.9
303.15 K, x2 = 0.1986 | 981.78 | 1503
303.15 K, x2 = 0.3254 | 963.91 | 1447.4
303.15 K, x2 = 0.4231 | 950.15 | 1404.4
303.15 K, x2 = 0.5008 | 939.2 | 1370.3
303.15 K, x2 = 0.5895 | 926.7 | 1331.4
303.15 K, x2 = 0.7128 | 909.32 | 1277.2
303.15 K, x2 = 0.8015 | 896.82 | 1238.3
303.15 K, x2 = 0.9105 | 881.46 | 1190.4
308.15 K, x2 = 0 | 1006.74 | 1578.6
308.15 K, x2 = 0.1009 | 992.28 | 1533.4
308.15 K, x2 = 0.1986 | 978.27 | 1489.5
308.15 K, x2 = 0.3254 | 960.1 | 1432.7
308.15 K, x2 = 0.4231 | 946.09 | 1388.9
308.15 K, x2 = 0.5008 | 934.96 | 1354
308.15 K, x2 = 0.5895 | 922.24 | 1314.2
308.15 K, x2 = 0.7128 | 904.57 | 1258.9
308.15 K, x2 = 0.8015 | 891.85 | 1219.2
308.15 K, x2 = 0.9105 | 876.23 | 1170.3
313.15 K, x2 = 0 | 1003.7 | 1567
313.15 K, x2 = 0.1009 | 988.99 | 1520.7
313.15 K, x2 = 0.1986 | 974.75 | 1476
313.15 K, x2 = 0.3254 | 956.27 | 1417.9
313.15 K, x2 = 0.4231 | 942.03 | 1373.2
313.15 K, x2 = 0.5008 | 930.7 | 1337.6
313.15 K, x2 = 0.5895 | 917.77 | 1297
313.15 K, x2 = 0.7128 | 899.8 | 1240.5
313.15 K, x2 = 0.8015 | 886.87 | 1199.9
313.15 K, x2 = 0.9105 | 870.99 | 1150
318.15 K, x2 = 0 | 1000.67 | 1555.3
318.15 K, x2 = 0.1009 | 985.72 | 1508.1
318.15 K, x2 = 0.1986 | 971.24 | 1462.5
318.15 K, x2 = 0.3254 | 952.45 | 1403.2
318.15 K, x2 = 0.4231 | 937.98 | 1357.6
318.15 K, x2 = 0.5008 | 926.46 | 1321.3
318.15 K, x2 = 0.5895 | 913.32 | 1279.8
318.15 K, x2 = 0.7128 | 895.05 | 1222.2
318.15 K, x2 = 0.8015 | 881.9 | 1180.7
318.15 K, x2 = 0.9105 | 865.75 | 1129.8
323.15 K, x2 = 0 | 997.63 | 1543.7
323.15 K, x2 = 0.1009 | 982.43 | 1495.6
323.15 K, x2 = 0.1986 | 967.72 | 1449
323.15 K, x2 = 0.3254 | 948.62 | 1388.6
323.15 K, x2 = 0.4231 | 933.91 | 1342
323.15 K, x2 = 0.5008 | 922.21 | 1305
323.15 K, x2 = 0.5895 | 908.85 | 1262.7
323.15 K, x2 = 0.7128 | 890.28 | 1204
323.15 K, x2 = 0.8015 | 876.92 | 1161.7
323.15 K, x2 = 0.9105 | 860.51 | 1109.8
